Data on one molecule can be found in patent US5229413A, “Compositions containing indole-2-carboxylate compounds for treatment of CNS disorders” (G. D. Searle & Co., priority 1992, dated 1993).

Where two headings read alike, the source gives them in different places.

Assay [1] concerns the target N-methyl-D-aspartate (NMDA) receptor site. As to the kind of experiment: Glutamate (NMDA) binding assay, L-[3H]glutamate, synaptic plasma membranes. Conditions: L-[3H]glutamate 12.5 nM, pH 7.4, 0-4° C.; read-out: Ki apparent, NMDA. Here is the method: The purpose of this assay is to determine the binding affinity of a compound of Formula I for the N-methyl-D-aspartate (NMDA) receptor site. This procedure was carried out as follows:
Synaptic plasma membranes (SPM) were prepared as previously described [Monahan, J. B. and Michel, J., "Identification and Characterization of an N-methyl-D-aspartate-specific L-[^3 H]glutamate Recognition Site in Synaptic Plasma Membranes, J. Neurochem., 48, 1699-1708 (1987)]. The SPM were stored at a concentration of 10-15 mg/ml in 0.32 M sucrose, 0.5 mM EDTA, 1 mM MgSO4, 5 mM Tris/SO4, pH 7.4, under liquid nitrogen. The identity and purity of the subcellular fractions were confirmed by both electron microscopy and marker enzymes. Protein concentrations were determined by using a modification of the method of Lowry [Ohnishi, S. T. and Barr, J. K., "A Simplified Method of Quantitating Proteins Using the Biuret and Phenol Reagents", Anal. Biochem., 86, 193-197 (1978)]. The SPM were thawed at room temperature, diluted twenty-fold with 50 mM Tris/acetate, pH 7.4, incubated at 37° C. for 30 minutes, and centrifuged at 100,000 g for 15 minutes. The dilution, incubation, and centrifugation was repeated a total of three times. This general method involved adding 12.5 nM of the L-[^3 H]glutamate radioligand to the appropriate concentration of the test compound and initiating the assay by the addition of ice cold SPM (0.2-0.45 mg). The binding assays were performed in 1.5 ml centrifuge tubes with the total volume adjusted to 1.0 ml. Additions of test compounds were made in 50 mM Tris/acetate, pH 7.4 and incubations were carried out at 0°-4° C. The incubation time for the NMDA binding assay was 10 minutes. To terminate the incubation, the samples were centrifuged for 15 minutes at 12,000 g and 4° C. in a Beckman Microfuge 12. The supernatant was aspirated and the pelleted membranes dissolved in Beckman Ready-Protein scintillation cocktail and the samples counted on a Beckman LS 5800 or 3801 liquid scintillation counter with automatic corrections for quenching and counting efficiency. Nonspecific binding was defined as the residual binding in the presence of 0.5 mM NMDA and was typically 15-25% of the total binding in the NMDA binding assay. Radioligand binding to the SPM was analyzed using Scatchard and Hill transformations and the Ki values of the compounds determined using logit-log transformations. Calculations and regression analysis were performed using templates developed for Lotus 1, 2, 3 as previously described [Pullan, L. M. "Automated Radioligand Receptor Binding Analysis with Templates for Lotus", Computer Appln. Biosci., 3 131 (1987)]. Binding results are reported in Table II for example compounds of the invention.

A further assay deals with hippocampal slice. Put plainly: Epileptic hippocampal slice, 0% Mg+2-induced epilepsy. The assay is classed as cell-based, Sprague-Dawley albino rat. Conditions: Rattus norvegicus, 30 μM Compound No. 6, 0% Mg+2. The source says: Hippocampal slices (450 μ) were obtained from male Sprague-Dawley albino rats (100-325 g). The method of slice preparation has been detailed elsewhere [A. H. Ganong et al., Brain Res., 273, 170-174 (1983)]. Slices were stored in a humidified interface chamber at room temperature and bathed in artificial cerebrospinal fluid (ACSF) which contained (in mM): NaCl 124.0, KCl 5.0, KH2 PO4 1.0, NaHCOP3 26.4, CaCl2, 2.0, MgSO4 1.5 and D-glucose 10.0, and was equilibrated with 95% 02:5% CO2. When needed for study, slices were placed one at a time in a small submersion chamber maintained at 35° C. where they were continuously perfused at 1.0-2.0 ml/min. Fresh solutions reached the recording chamber within 20 seconds and the perfusate was completely changed over within a minute. Additional oxygen and stirring was provided by an air jet (95% O2 :5% CO2) directed at the surface of the ACSF. Standard electrophysiological techniques were employed. Extracellular recording electrodes were glass micropipettes filled with 2.0 M NaCl and broken back to 2.0 m.OMEGA. resistance. All recording was from the somatic region of CA1. […] Intracellular recording electrodes of 60-100 MQ resistance were filled with 2.5 M KAc. […] The Schaffer collateral/commissural fibers were stimulated with tungsten bipolar stimulating electrodes at a rate of 0.03 Hz. The resulting field EPSP (S/C-CA1 EPSP) and the DC potential were amplified by an Axoprobe 1 amplifier and were continuously monitored on a Tektronix 5111A storage oscilloscope and a Gould 2300 chart recorder with a Gould Waveform storage module. Epileptiform activity was induced by omission of Mg++ ions from the perfusate, which removes the Mg++ mediated voltage-dependent block of the NMDA. receptor [B. Ault et al., J. Physiol., 307, 413-428 (1980)], or by the addition of the GABA antagonist picrotoxin. Drugs were added to the perfusate and zero magnesium refers to solutions which contain no added magnesium. The amplitude of the stimulus evoked primary population spike was used to assess the effects of experimental manipulations on the efficacy of synaptic function.

For the next assay, the system named is Cerebellar cGMP. Put plainly: Assay for effect on cGMP (cerebellum, intracisternal injection). In kind it is in vivo, Swiss Hausche mice. The conditions noted are these: ± SEM. On the procedure: Male Swiss Hausche mice (25-30 g) were injected intracisternally (i.c.t.) with glycine agonists 10 minutes prior to sacrifice by focussed microwave irradiation. Compounds of the invention were injected intracisternally 2 minutes prior to the agonist. For intracisternal injections, al agonists were dissolved in HCl and diluted with isotonic saline prior to adjustment of the pH to between 6 and 7 with NaOH. The compounds of the invention were dissolved in isotonic saline and all compounds were administered in a volume of 5 μl.
Hydrochloric acid in extracts of the cerebellum were freeze-dried for assay of cGMP with a commercial RIA kit (NEN). Protein determinations (Lowery) and statistics (Dunett's t-test) were performed as described previously [P. L. Wcod et al., Neurochem., 19, 975-982 (1980)]. Groups consisted of 7-10 mice.

With `O=C(O)Cc1c(C(=O)O)[nH]c2cc(Cl)ccc12` [Compound No. 6, 2-carboxy-6-chloro-3-indoleacetic acid], in assay [1], the Ki is over 100 µM. Moreover, the activity at 30 µM worked out at 60% in the assay on hippocampal slice (read-out: Burst duration), 97% with hippocampal slice (read-out: Primary population spike amplitude), 48% in the assay with hippocampal slice (read-out: Spontaneous activity) and 70.1% in the assay on hippocampal slice (read-out: Sum of additional population spike amplitude). Besides, the “Cerebellar cGMP” value with Cerebellar cGMP (Compound No. 6 (5 μg) alone) was determined as 3.5 ± 0.55 pmol/mg protein; in the assay on Cerebellar cGMP (D-Serine (100 μg) + Compound No. 6 (5 μg)), 5.8 ± 0.96 pmol/mg protein.
